Measured values: patent publication US20250230193A1, “CYCLIC COMPOUND HAVING SELECTIVE KRAS INHIBITORY EFFECT ON HRAS AND NRAS” (CHUGAI SEIYAKU KABUSHIKI KAISHA, priority 2022, published 2025)

Columns and labels:
[1] = target: GDP-bound NRAS wild-type protein (Homo sapiens, UniProt P01111); assay: Binding to NRAS by surface plasmon resonance (SPR), Single Cycle Kinetics; conditions: SPR, GDP-bound NRAS wild-type vs GDP-bound KRAS wild-type
[2] = target: GDP-bound HRAS wild-type protein (Homo sapiens, UniProt P01112); assay: Binding to HRAS by surface plasmon resonance (SPR), Single Cycle Kinetics; conditions: SPR, GDP-bound HRAS wild-type vs GDP-bound KRAS wild-type
GDP-bound HRAS wild-type protein, sequence (P01112 whole entry): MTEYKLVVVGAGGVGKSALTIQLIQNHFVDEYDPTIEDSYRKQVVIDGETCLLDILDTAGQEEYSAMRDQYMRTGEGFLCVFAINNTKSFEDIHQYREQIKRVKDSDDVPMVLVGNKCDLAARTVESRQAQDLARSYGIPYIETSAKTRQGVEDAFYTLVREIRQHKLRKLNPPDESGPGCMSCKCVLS

GDP-bound NRAS wild-type protein, sequence (P01111 whole entry): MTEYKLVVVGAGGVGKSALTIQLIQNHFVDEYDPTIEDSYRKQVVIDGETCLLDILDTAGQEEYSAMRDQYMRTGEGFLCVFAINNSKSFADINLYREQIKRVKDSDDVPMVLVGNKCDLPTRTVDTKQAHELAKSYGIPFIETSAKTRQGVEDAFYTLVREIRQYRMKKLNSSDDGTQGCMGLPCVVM

SMILES | NRAS/KRAS (ratio of KD value with respect to NRAS to KD value with respect to KRAS) [1] | HRAS/KRAS (ratio of KD value with respect to HRAS to KD value with respect to KRAS) [2]
CCO[C@@H]1C[C@H]2C(=O)NC3(CC(C)(C)C3)C(=O)N(C)[C@@H](C(CC)CC)C(=O)N(C)[C@H](C(=O)N(C)C)CC(=O)N(C)[C@@H](CC3CCC3)C(=O)N[C@@H]([C@@H](C)CC)C(=O)N(C)CC(=O)N(C)[C@H]3C/C=C\CCN(C3=O)[C@@H](Cc3ccc(C(F)(F)F)cc3)C(=O)N(C)CC(=O)N[C@@H](CCc3cc(F)c(C(F)(F)F)c(F)c3)C(=O)N2C1 [PP2133] | AA (a compound having 20 or more is denoted as AA) | A (a compound having 10 or more and less than 20 is denoted as A)
CCO[C@@H]1C[C@H]2C(=O)NC3(CC(C)(C)C3)C(=O)N(C)[C@@H](C(CC)CC)C(=O)N(C)[C@H](C(=O)N(C)C)CC(=O)N(C)[C@@H](C(C)C)C(=O)N[C@@H]([C@@H](C)CC)C(=O)N(C)CC(=O)N(C)[C@H]3C/C=C\CCN(C3=O)[C@@H](Cc3ccc(C(F)(F)F)cc3)C(=O)N(C)CC(=O)N[C@@H](CCc3cc(F)c(C(F)(F)F)c(F)c3)C(=O)N2C1 [PP2135] | AA (a compound having 20 or more is denoted as AA) | A (a compound having 10 or more and less than 20 is denoted as A)
CCO[C@@H]1C[C@H]2C(=O)NC3(CC(C)(C)C3)C(=O)N(C)[C@@H](C(CC)CC)C(=O)N(C)[C@H](C(=O)N(C)C)CC(=O)N(C)[C@@H](CC3CC3)C(=O)N[C@@H]([C@@H](C)CC)C(=O)N(C)CC(=O)N(C)[C@H]3C/C=C\CCN(C3=O)[C@@H](Cc3ccc(C)cc3)C(=O)N(C)CC(=O)N[C@@H](CCc3cc(F)c(C(F)(F)F)c(F)c3)C(=O)N2C1 [PP2137] | A (a compound having 10 or more and less than 20 is denoted as A) | A (a compound having 10 or more and less than 20 is denoted as A)
CCO[C@@H]1C[C@H]2C(=O)NC3(CC(C)(C)C3)C(=O)N(C)[C@@H](C(CC)CC)C(=O)N(C)[C@H](C(=O)N(C)C)CC(=O)N(C)[C@@H](CC3CCC3)C(=O)N[C@@H]([C@@H](C)CC)C(=O)N(C)CC(=O)N(C)[C@H]3C/C=C\CCN(C3=O)[C@@H](Cc3ccc(C(F)(F)F)cc3)C(=O)N(C)CC(=O)N[C@@H](CCc3ccc(C(F)(F)F)c(Cl)c3)C(=O)N2C1 [PP2138] | A (a compound having 10 or more and less than 20 is denoted as A) | A (a compound having 10 or more and less than 20 is denoted as A)
CCO[C@@H]1C[C@H]2C(=O)NC3(CC(C)(C)C3)C(=O)N(C)[C@@H](C(CC)CC)C(=O)N(C)[C@H](C(=O)N3CCCC3)CC(=O)N(C)[C@@H](COC)C(=O)N[C@@H]([C@@H](C)CC)C(=O)N(C)CC(=O)N(C)[C@H]3C/C=C\CCN(C3=O)[C@@H](Cc3ccc(C)cc3)C(=O)N(C)CC(=O)N[C@@H](CCc3cc(F)c(C(F)(F)F)c(F)c3)C(=O)N2C1 [PP2139] | AA (a compound having 20 or more is denoted as AA) | A (a compound having 10 or more and less than 20 is denoted as A)
CCO[C@@H]1C[C@H]2C(=O)NC3(CC(C)(C)C3)C(=O)N(C)[C@@H](C(CC)CC)C(=O)N(C)[C@H](C(=O)N(C)C)CC(=O)N(C)[C@@H](C(C)C)C(=O)N[C@@H]([C@@H](C)CC)C(=O)N(C)CC(=O)N(C)[C@H]3C/C=C\CCN(C3=O)[C@@H](Cc3ccc(C(F)(F)F)cc3)C(=O)N(C)CC(=O)N[C@@H](CCc3ccc(C(F)(F)F)c(Cl)c3)C(=O)N2C1 [PP2140] | AA (a compound having 20 or more is denoted as AA) | A (a compound having 10 or more and less than 20 is denoted as A)
CCO[C@@H]1C[C@H]2C(=O)NC3(CC(C)(C)C3)C(=O)N(C)[C@@H](C(CC)CC)C(=O)N(C)[C@H](C(=O)N(C)C)CC(=O)N(C)[C@@H](CC(C)C)C(=O)N[C@@H]([C@@H](C)CC)C(=O)N(C)CC(=O)N(C)[C@H]3C/C=C\CCN(C3=O)[C@@H](Cc3ccc(C)cc3)C(=O)N(C)CC(=O)N[C@@H](CCc3cc(F)c(C(F)(F)F)c(F)c3)C(=O)N2C1 [PP2141] | A (a compound having 10 or more and less than 20 is denoted as A) | A (a compound having 10 or more and less than 20 is denoted as A)
CCO[C@@H]1C[C@H]2C(=O)NC3(CC(C)(C)C3)C(=O)N(C)[C@@H](C(CC)CC)C(=O)N(C)[C@H](C(=O)N(C)C)CC(=O)N(C)[C@@H](CC3CC3)C(=O)N[C@@H]([C@@H](C)CC)C(=O)N(C)CC(=O)N(C)[C@H]3C/C=C\CCN(C3=O)[C@@H](Cc3ccc(C)cc3)C(=O)N(C)CC(=O)N[C@@H](CCc3ccc(C(F)(F)F)c(Cl)c3)C(=O)N2C1 [PP2142] | AA (a compound having 20 or more is denoted as AA) | A (a compound having 10 or more and less than 20 is denoted as A)
CCO[C@@H]1C[C@H]2C(=O)NC3(CC(C)(C)C3)C(=O)N(C)[C@@H](C(CC)CC)C(=O)N(C)[C@H](C(=O)N(C)C)CC(=O)N(C)[C@@H](C)C(=O)N[C@@H]([C@@H](C)CC)C(=O)N(C)CC(=O)N(C)[C@H]3C/C=C\CCN(C3=O)[C@@H](Cc3ccc(C)cc3)C(=O)N(C)CC(=O)N[C@@H](CCc3cc(F)c(C(F)(F)F)c(F)c3)C(=O)N2C1 [PP2143] | A (a compound having 10 or more and less than 20 is denoted as A) | A (a compound having 10 or more and less than 20 is denoted as A)
CCO[C@@H]1C[C@H]2C(=O)NC3(CC(C)(C)C3)C(=O)N(C)[C@@H](C(CC)CC)C(=O)N(C)[C@H](C(=O)N3CCCC3)CC(=O)N(C)[C@@H](COC)C(=O)N[C@@H]([C@@H](C)CC)C(=O)N(C)CC(=O)N(C)[C@H]3C/C=C\CCN(C3=O)[C@@H](Cc3ccc(C)cc3)C(=O)N(C)CC(=O)N[C@@H](CCc3ccc(C(F)(F)F)c(Cl)c3)C(=O)N2C1 [PP2144] | AA (a compound having 20 or more is denoted as AA) | A (a compound having 10 or more and less than 20 is denoted as A)
CCO[C@@H]1C[C@H]2C(=O)NC3(CC(C)(C)C3)C(=O)N(C)[C@@H](C(CC)CC)C(=O)N(C)[C@H](C(=O)N3CCCC3)CC(=O)N(C)[C@@H](C)C(=O)N[C@@H]([C@@H](C)CC)C(=O)N(C)CC(=O)N(C)[C@H]3C/C=C\CCN(C3=O)[C@@H](Cc3ccc(C)cc3)C(=O)N(C)CC(=O)N[C@@H](CCc3cc(F)c(C(F)(F)F)c(F)c3)C(=O)N2C1 [PP2145] | A (a compound having 10 or more and less than 20 is denoted as A) | A (a compound having 10 or more and less than 20 is denoted as A)
CCC[C@H]1C(=O)N[C@@H]([C@@H](C)CC)C(=O)N(C)CC(=O)N(C)[C@H]2C/C=C\CCN(C2=O)[C@@H](Cc2ccc(C)cc2)C(=O)N(C)CC(=O)N[C@@H](CCc2ccc(C(F)(F)F)c(Cl)c2)C(=O)N2C[C@H](OCC)C[C@H]2C(=O)NC2(CC(C)(C)C2)C(=O)N(C)[C@@H](C(CC)CC)C(=O)N(C)[C@H](C(=O)N(C)C)CC(=O)N1C [PP2146] | A (a compound having 10 or more and less than 20 is denoted as A) | A (a compound having 10 or more and less than 20 is denoted as A)
CCO[C@@H]1C[C@H]2C(=O)NC3(CC(C)(C)C3)C(=O)N(C)[C@@H](C(CC)CC)C(=O)N(C)[C@H](C(=O)N(C)C)CC(=O)N(C)[C@@H](CC)C(=O)N[C@@H]([C@@H](C)CC)C(=O)N(C)CC(=O)N(C)[C@H]3C/C=C\CCN(C3=O)[C@@H](Cc3ccc(C)cc3)C(=O)N(C)CC(=O)N[C@@H](CCc3cc(F)c(C(F)(F)F)c(F)c3)C(=O)N2C1 [PP2147] | A (a compound having 10 or more and less than 20 is denoted as A) | B (a compound having 3 or more and less than 10 is denoted as B)
CCO[C@@H]1C[C@H]2C(=O)NC3(CC(C)(C)C3)C(=O)N(C)[C@@H](C(CC)CC)C(=O)N(C)[C@H](C(=O)N(C)C)CC(=O)N(C)[C@@H](CC(C)C)C(=O)N[C@@H]([C@@H](C)CC)C(=O)N(C)CC(=O)N(C)[C@H]3C/C=C\CCN(C3=O)[C@@H](Cc3ccc(C)cc3)C(=O)N(C)CC(=O)N[C@@H](CCc3ccc(C(F)(F)F)c(Cl)c3)C(=O)N2C1 [PP2148] | A (a compound having 10 or more and less than 20 is denoted as A) | A (a compound having 10 or more and less than 20 is denoted as A)
CCO[C@@H]1C[C@H]2C(=O)NC3(CC(C)(C)C3)C(=O)N(C)[C@@H](C(CC)CC)C(=O)N(C)[C@H](C(=O)N3CCCC3)CC(=O)N(C)[C@@H](CC)C(=O)N[C@@H]([C@@H](C)CC)C(=O)N(C)CC(=O)N(C)[C@H]3C/C=C\CCN(C3=O)[C@@H](Cc3ccc(C)cc3)C(=O)N(C)CC(=O)N[C@@H](CCc3cc(F)c(C(F)(F)F)c(F)c3)C(=O)N2C1 [PP2149] | A (a compound having 10 or more and less than 20 is denoted as A) | A (a compound having 10 or more and less than 20 is denoted as A)
CCO[C@@H]1C[C@H]2C(=O)NC3(CC(C)(C)C3)C(=O)N(C)[C@@H](C(CC)CC)C(=O)N(C)[C@H](C(=O)N(C)C)CC(=O)N(C)[C@@H](C)C(=O)N[C@@H]([C@@H](C)CC)C(=O)N(C)CC(=O)N(C)[C@H]3C/C=C\CCN(C3=O)[C@@H](Cc3ccc(C)cc3)C(=O)N(C)CC(=O)N[C@@H](CCc3ccc(C(F)(F)F)c(Cl)c3)C(=O)N2C1 [PP2150] | AA (a compound having 20 or more is denoted as AA) | A (a compound having 10 or more and less than 20 is denoted as A)
